Experimental findings from patent publication US5037841A, “1,3-disubstituted pyrrolidines” (Bayer Aktiengesellschaft, priority 1988, dated 1991) are described below.

Molecules are shown by their SMILES. Structures can show the parent of a compound that is named as a salt.

One experiment concerns the target T1, 5-HT1 receptor (Bos taurus, UniProt F6Q2H9).
T1 construct: calf hippocampus membrane preparations; from tissue; host or cells: calf hippocampus membranes
T1 sequence (F6Q2H9 1-422): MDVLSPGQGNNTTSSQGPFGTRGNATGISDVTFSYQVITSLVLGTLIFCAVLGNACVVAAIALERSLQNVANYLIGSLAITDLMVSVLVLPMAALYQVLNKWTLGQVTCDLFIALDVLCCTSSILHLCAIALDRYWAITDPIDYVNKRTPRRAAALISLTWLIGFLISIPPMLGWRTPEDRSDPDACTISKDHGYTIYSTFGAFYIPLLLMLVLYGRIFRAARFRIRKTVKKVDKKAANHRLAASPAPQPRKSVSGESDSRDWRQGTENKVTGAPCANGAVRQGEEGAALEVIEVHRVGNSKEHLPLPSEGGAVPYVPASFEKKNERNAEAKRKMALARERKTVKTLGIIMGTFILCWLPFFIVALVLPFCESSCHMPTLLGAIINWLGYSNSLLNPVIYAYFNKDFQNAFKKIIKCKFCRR
In words: Affinity for the 5-HT1 receptor: receptor binding studies using calf hippocampus membrane preparations, 3H-serotonin as radioligand. Conditions: Comparison compound of DE-A 1,964,511; test conditions not restated; read-out: Ki value (comparison compound). An excerpt:
Affinity for the 5-HT1 receptor
The high affinity of the compound according to the invention for 5-hydroxytryptamine receptors of the subtype […] is represented by way of example in Table 4. The values indicated are data which have been determined from receptor binding studies using calf hippocampus membrane preparations. For this purpose, ^3 H-serotonin was used as a radioactively labelled ligand.
Regarding `COc1ccccc1OC1CCN(C(C)C)C1` (stereo not shown) [Comparison, reference compound], the Ki – broadly, a measure of affinity in units of concentration, obtained from inhibition or displacement – was 1000 nM.

The experiment is the same for the next values; noted with them: calf hippocampus membranes; 3H-serotonin radioligand; read-out: Ki.
For `O=C1c2ccccc2S(=O)(=O)N1CCCCN1CCC(Oc2cccc3ccccc23)C1` (stereo not shown) [Example 23, 3-(1-naphthyloxy)-1-[4-(1,1-dioxido-3-oxo-2,3-dihydrobenzisothiazol-2-yl)butyl]-pyrrolidine], the Ki was 0.3 nM.

Consider `NC(=O)c1ccccc1OC1CCN(CCCCN2C(=O)c3ccccc3S2(=O)=O)C1` (stereo not shown) [Example 19, 3-(2-carbamoylphenoxy)-1-[4-(1,1-dioxido-3-oxo-2,3-dihydrobenzisothiazol-2-yl)butyl]-pyrrolidine], for which the Ki is 7 nM.

With `COc1cccc(OC2CCN(CCCCN3C(=O)c4ccccc4S3(=O)=O)C2)c1` (stereo not shown) [Example 10, 3-(3-methoxyphenoxy)-1-[4-(1,1-dioxido-3-oxo-2,3-dihydrobenzisothiazol-2-yl)butyl]-pyrrolidine], the Ki came out at 6 nM.

As to `O=C1c2ccccc2S(=O)(=O)N1CCCCN1CCC(Oc2ccccc2)C1` (stereo not shown) [Example 6], the inhibition constant (Ki) is 9 nM.

`COc1ccccc1OC1CCN(CCCCN2C(=O)c3ccccc3S2(=O)=O)C1` (stereo not shown) [Example 8, 3-(2-methoxyphenoxy)-1-[4-(1,1-dioxido-3-oxo-2,3-dihydrobenzisothiazol-2-yl)butyl]-pyrrolidine]: the Ki stood at 1.3 nM.

With `N#Cc1ccccc1OC1CCN(CCCCN2C(=O)c3ccccc3S2(=O)=O)C1` (stereo not shown) [Example 1, 3-(2-Cyanophenoxy)-1-[4-(1,1-dioxido-3-oxo-2,3-dihydrobenzisothiazol-2-yl)butyl]-pyrrolidine oxalate], the Ki was 2 nM.
